Converted amounts (≈) assume the structure as drawn. “Also recorded” adds a separate entry of the source.
Legend:
[1] = tested on: Aspergillus fumigatus; conditions: cited from earlier work
[2] = tested on: A. fumigatus; conditions: cited from earlier work
[3] = tested on: A. fumigatus; test: Lung histopathology, pulmonary lesion counts in A. fumigatus-infected mice; assay type: in vivo, Aspergillus fumigatus
Method: Histopathological changes in lung tissue were evaluated and compared for four mice in each of the inhaled voriconazole, inhaled control, and intraperitoneal AmB groups. The inhaled control was aerosolized CAPTISOL® at a concentration of 100 mg/mL over 20 minutes. On day 8 post inoculation, animals were euthanized using halothane and 10% volume/volume formaldehyde was instilled into the lungs via the trachea. Lungs were then harvested and placed into 10% volume/volume formaldehyde. Tissue was fixed in formaldehyde for an adequate period of time followed by processing and embedding into paraffin wax. Coronal sections of the entire lung were obtained at a thickness of 4-6 μm and mounted on slides. Sections were stained with hematoxylin and eosin and viewed by light microscopy with a Zeiss AxioVision Imager at 10× magnification. Two investigators were blinded and independently evaluated each lung section. The extent of lung damage caused by invasive hyphae was recorded and quantified by counting and normalizing the number of gross lesions.
Normalization of the histopathology results was achieved by using the number of lung pieces (sections) on the slide as a denominator. The total number of lesions on the slide were counted and then divided by the number of pieces of tissue on that slide. This was done because the number of pieces of tissue per slide (again, all from the same cut of lung from the same animal) ranged from 4 to 9. For example, the normalized number of lesions would be 0.4 if 2 lesions were observed on a slide with 5 lung pieces. Similarly, the normalized value would be 0.14 if 1 lesion was observed on a slide with 7 lung pieces.

[4] = normalized lesions, listed as VRC

## CC(c1ncncc1F)C(O)(Cn1cncn1)c1ccc(F)cc1F (centres unmarked) [Voriconazole, 2-(2,4-difluorophenyl)-3-(5-fluoropyrimidin-4-yl)-1-(1H-1,2,4-triazol-1-yl)butan-2-ol]
[1]; A. fumigatus clinical test isolates
  MIC50: 0.25 µg/mL (≈ 0.716 µM)
[1]; Aspergillus fumigatus
  minimum inhibitory concentrations for 90% of isolates (MIC90): 0.5-1 microgram/mL
[1]; red line in FIG. 10
  MIC90: 0.52 µg/mL (≈ 1.49 µM)
[2]
  fungicidal activity at a low concentration: 0.5 microgram/mL
[2]; non-linear regression analysis
  EC50 value (concentration resulting in 50% inhibition of growth compared to control): 0.18 micrograms/mL
[3]; A. fumigatus-infected mice, aerosolized voriconazole, intraperitoneal amphotericin B
  lung histopathology findings (in words): fewer signs of invasive disease and markedly improved histological findings; also recorded: fewer signs of invasive disease and markedly improved histological results; also recorded: Invasive hyphae and tissue destruction characteristic of invasive pulmonary aspergillosis were not observed
[3]; normalized lesions
  pulmonary lesions normalized for the number of lung tissue pieces per slide, 25th Percentile: 0.19
  pulmonary lesions normalized for the number of lung tissue pieces per slide, 75th Percentile: 0.51
  pulmonary lesions normalized for the number of lung tissue pieces per slide, Maximum: 0.55
  pulmonary lesions normalized for the number of lung tissue pieces per slide, Mean: 0.4
  pulmonary lesions normalized for the number of lung tissue pieces per slide, Median: 0.37
  pulmonary lesions normalized for the number of lung tissue pieces per slide, Minimum: 0.14
[3]; [4]
  pulmonary lesions normalized for the number of lung tissue pieces per slide, 25th Percentile: 0.2
  pulmonary lesions normalized for the number of lung tissue pieces per slide, 75th Percentile: 0.5
  pulmonary lesions normalized for the number of lung tissue pieces per slide, Maximum: 0.6
  pulmonary lesions normalized for the number of lung tissue pieces per slide, Median: 0.4
  pulmonary lesions normalized for the number of lung tissue pieces per slide, Minimum: 0.1
[3]; number of lesions
  pulmonary lesions in all available histological samples, 25th Percentile: 1.3
  pulmonary lesions in all available histological samples, 75th Percentile: 4.3
  pulmonary lesions in all available histological samples, Maximum: 5.0
  pulmonary lesions in all available histological samples, Mean: 2.5
  pulmonary lesions in all available histological samples, Median: 2.0
  pulmonary lesions in all available histological samples, Minimum: 1.0

From patent US20110224232A1 (Board of Regents, The University of Texas System, priority 2008, published 2011)
